Laboratory results as given in US20060002934A1 (priority 2002, published 2006).
Entries after “also recorded” stand apart in the source; their conditions may differ.

What was measured:
Type in all cases: cell-based, human
[1] = system: MDA-MB-435S cells expressing del 8 E-cadherin; test: Cell motility by time-lapse laser scanning microscopy, del 8 E-cadherin transfectants; conditions: del 8 E-cadherin cells on collagen I, Tyrphostin AG 1478 6.3 μM; for cell motility enhanced by mutant E-cadherin (effect of inhibitor): 7 h, PD 98059 50 μM, LY 294002 40 μM
Description: For time-lapse laser scanning microscopy, cells were cultivated in a microscope-coupled incubation chamber (Zeiss, Jena, Germany) at 37° C. under 5% CO2. Cells were seeded at a density of 2×10^5 cells per 3.5-cm in plates with a glass bottom which were purchased either uncoated or coated with poly-lysine from MatTek Corporation (Ashland, Mass., USA). Uncoated plates were coated for 4 h at 37° C. with collagen I (100 μg/ml, Sigma, Deisenhofen, Germany) or overnight at 4° C. with fibronectin (10 μg/ml, Sigma) or vitronectin (10 μg/ml, Becton Dickinson, Bedford, USA). Kinase inhibitors were used at final concentrations of 50 μM (PD 98059, Sigma, Deisenhofen, Germany), 40 μM (LY 294002, Calbiochem, Schwalbach, Germany), or 6.3 μM (Tyrphostin AG 1478, Sigma). […] Phase contrast images were taken at 3 min intervals with an Axiovert laser scanning microscope LSM 510 (Zeiss) with lens PNF 20×/0.4 PH2 and a helium-neon laser at 543 nm in transmission scanning mode. The percentage of motile cells was measured by drawing the outlines of cells on the screen and counting the cells which moved completely out of the initial area within the recording time of 7 h. Semiautomatic tracing of cell nuclei using the laser scanning microscope software from Zeiss allowed determination of the individual cell speed. The calculation of the cell speed is based on the division of the displacement of an individual cell divided by the total time of recording. Cells were brought in suspension by disruption of cell-cell and cell-matrix interactions and seeded on glass plates precoated with collagen type 1. Cell motility was analyzed by long-term recordings of a duration of 7 h starting 2 h after plating using a laser scanning microscope coupled with a temperature- and CO2-controlled incubation chamber. Motile cells were defined as cells which were able to move out of their initial space within 7 h according to a method described by Marks (J. Cell Bioll. 112 (1991), 149-158). The percentage of motile cells was similar in non-transfected (30%) or wt E-cadherin expressing MDA-MB-435S cells (26%) but elevated upon expression of mutant E-cadherin: […] (52%), […] (58%) and p8 (45%, FIG. 1B). It has been shown for a number of cell lines that the motile behavior of individual cells is variable and therefore it is advisable to investigate a large number of cells to obtain a reliable determination of cellular velocity (Hartmann-Petersen, Cytometry 40 (2000), 260-270). In order to determine the motility of individual cells, the center of the nucleus was semiautomatically traced and the speed of 60 cells per cell line derived from at least three independent experiments was calculated. The range between the minimal and the maximal cell speed and the median of cell speeds were used as motility parameters. […]

p44/42 MAP kinase = test: Western blot with phosphorylation-specific antibodies, MAP kinase; conditions: data not shown
Description: (§1) For immunoblot analysis, cells were seeded at a density of 6×10^5 cells per 10 cm tissue culture dish and lysed 5 h later with 500 μL-CAM buffer (140 mM NaCl, 4.7 mM KCl, 0.7 mM MgSO4, 1.2 mM CaCl2, 10 mM Hepes pH 7.4, containing 1% (v/v) Triton-X-100 and 1 mM phenylmethylsulfonylfluoride (PMSF) (Cunningham, Proc. Acad. Sci. USA 81 (1984), 5787-5791). Proteins were separated by 7% SDS-polyacrylamide gel electrophoresis followed by transfer to nitrocellulose (Schleicher & Schuell, Dassel, Germany) or PVDF (Bio-Rad Laboratories, München, Germany) membranes. Polyclonal antibodies against total or activated kinases were purchased from New England Biolabs (Frankfurt, Germany): Akt antibody (#9272), detecting total Akt kinase levels, phospho-Akt antibody (Ser473, #9270), detecting phosphorylated Ser 473 in Akt1, Akt2 and Akt3, MAP kinase antibody (# 9102), detecting total MAP kinase, phospho-p44/42 MAP kinase (#9101) detecting activated MAP kinase phosphorylated at Thr 202/[…]. Monoclonal antibody against p53 was purchased from Oncogene Research Products (Ab-6, #OP43). Polyclonal antibodies against total or activated p38 MAP kinases were purchased from New England Biolabs. Phospho-p38 MAP kinase polyclonal antibody (#9211) detects phosphorylated threonine 180 and tyrosine 182 p38 MAP kinase (#9212). […]

Akt/PKB = test: Western blot with phosphorylation-specific antibodies, Akt/PKB; conditions: data not shown
Description: as §1

[2] = system: wt-EcadEGFP expressing MDA-MB-435S cells; test: Time-lapse imaging of motility and E-cadherin localization, wt-EcadEGFP transfectants; conditions: for cell motility (range of cell speeds) / cell paths (range): wt-EcadEGFP cells, 10 cells, 4 h
Description: (§2) For time-lapse laser scanning microscopy, cells were cultivated overnight in a microscope-coupled incubation chamber (Zeiss, Jena, Germany) at 37 °C under 5% CO2. Cells were seeded at a density of 1×10^5 cells per 3.5-cm in collagen I-coated plates with a glass bottom which were purchased from MatTek Corporation (Ashland, Mass., USA). Uncoated plates were coated for 4 h at 37° C. with collagen I (100 μg/ml). EGFR kinase inhibitor Tyrphostin AG 1478 (Sigma, Deisenhofen, Germany) was used at a final concentration of 6.3 μM. […] Phase contrast images were taken at 2-3 min intervals with an Axiovert laser scanning microscope LSM 510 (Zeiss) with lens PNF 63× (oil) and an argon laser at 488 nm with a transmission filter of 515 nm.
(§3) To investigate the temporal localization of mutant E-cadherin during cell migration, EcadEGFP transfected cells were cultivated in an incubation chamber coupled with a Zeiss Axiovert 100 microscope. Cells transfected with the vector pEGFP-N2 Vektor or the different EcadEGFP constructs (wt-EcadEGFP and p8-EcadEGFP), were seeded on collagen I coated dishes with glas bottom.

[3] = system: p8-EcadEGFP expressing MDA-MB-435S cells; test: Time-lapse imaging of motility and E-cadherin localization, p8-EcadEGFP transfectants
Description: as §2, §3

[4] = system: MDA-MB-435S cells expressing wt E-cadherin; test: Cell motility by time-lapse laser scanning microscopy, wt E-cadherin transfectants
Description: For time-lapse laser scanning microscopy, cells were cultivated in a microscope-coupled incubation chamber (Zeiss, Jena, Germany) at 37° C. under 5% CO2. Cells were seeded at a density of 2×10^5 cells per 3.5-cm in plates with a glass bottom which were purchased either uncoated or coated with poly-lysine from MatTek Corporation (Ashland, Mass., USA). Uncoated plates were coated for 4 h at 37° C. with collagen I (100 μg/ml, Sigma, Deisenhofen, Germany) or overnight at 4° C. with fibronectin (10 μg/ml, Sigma) or vitronectin (10 μg/ml, Becton Dickinson, Bedford, USA). Kinase inhibitors were used at final concentrations of 50 μM (PD 98059, Sigma, Deisenhofen, Germany), 40 μM (LY 294002, Calbiochem, Schwalbach, Germany), or 6.3 μM (Tyrphostin AG 1478, Sigma).
Phase contrast images were taken at 3 min intervals with an Axiovert laser scanning microscope LSM 510 (Zeiss) with lens PNF 20×/0.4 PH2 and a helium-neon laser at 543 nm in transmission scanning mode. The percentage of motile cells was measured by drawing the outlines of cells on the screen and counting the cells which moved completely out of the initial area within the recording time of 7 h. […]
Cells were brought in suspension by disruption of cell-cell and cell-matrix interactions and seeded on glass plates precoated with collagen type 1. Cell motility was analyzed by long-term recordings of a duration of 7 h starting 2 h after plating using a laser scanning microscope coupled with a temperature- and CO2-controlled incubation chamber. […]
It has been shown for a number of cell lines that the motile behavior of individual cells is variable and therefore it is advisable to investigate a large number of cells to obtain a reliable determination of cellular velocity (Hartmann-Petersen, Cytometry 40 (2000), 260-270). In order to determine the motility of individual cells, the center of the nucleus was semiautomatically traced and the speed of 60 cells per cell line derived from at least three independent experiments was calculated. […]

[5] = collagen I, Tyrphostin AG1478 6,3 μM
[6] = p8-EcadEGFP cells, collagen I, Tyrphostin AG1478 6,3 μM, 10 cells, 4 h
[7] = serum starved overnight, EGF 100 ng/ml

Compound	cell motility enhanced by mutant E-cadherin (effect of inhibitor) [1]	EGF-induced activation of MAP kinase (phosphorylation) (p44/42 MAP kinase)	EGF-induced activation of Akt/PKB (Akt/PKB)	localization of wt-EcadEGFP ([2]; Tyrphostin AG1478 6,3 μM)	cell motility (range of cell speeds) [2, 5]	cell paths (range) [2, 5]	median and range of cell speeds ([1]; traced 7 h)	percentage of motile cells ([1]; traced 7 h)	localization of p8-EcadEGFP ([3]; Tyrphostin AG1478 6,3 μM)	cell motility (range of cell speeds) [3, 6]	cell paths (range) [3, 6]	percentage of motile cells ([4]; wt E-cadherin cells on collagen I, 7 h, EGF 100 ng/ml)	cellular motility ([4]; wt E-cadherin cells, EGF treatment)	cell morphology ([4]; wt or del 8 E-cadherin cells on collagen I, 2 h after plating, EGF 100 ng/ml (FIG. 5C))	cell motility (range of cell speeds) [2, 7]	cell paths (range) [2, 7]	effect on the motility of p8-EcadEGFP transfected cells ([3]; EGF 100 ng/ml, p=0,364 Kruskal Wallis Test)	cell paths (range) ([3]; p8-EcadEGFP cells, serum starved overnight, EGF 100 ng/ml, 10 cells, 4 h)	localization of p8-EcadEGFP ([3]; serum starved, EGF 100 ng/ml)
COc1cccc(-c2cc(=O)c3ccccc3o2)c1N [PD 98059]	less effective; also recorded: no inhibitory effect	effectively blocked	–	–	–	–	–	–	–	–	–	–	–	–	–	–	–	–	–
COc1cc2ncnc(Nc3cccc(Cl)c3)c2cc1OC [Tyrphostin AG 1478]	sensitive	completely blocked	completely blocked	not significantly changed; also recorded: no influence	1,3-8,8 μm/h	15,1-35,2 μm	decreased to the level of wt E-cadherin expressing cells	decreased to the level of wt E-cadherin expressing cells	also localized perinuclear and at cell cell adhesion sites; also recorded: localized at cell cell contacts and perinuclear	5,7-20 μm/h	22,8-80,3 μm	–	–	–	–	–	–	–	–
epidermal growth factor [EGF]	–	–	–	–	–	–	–	–	–	–	–	increased to the level of del 8 E-cadherin expressing cells	enhanced cellular motility	developed filopodia and lost cell to cell contacts	3,8-15,6 μm/h	15,1-62,4 μm	only minor effects	19,7-97,2 μm	detectable at the cell edges and in lamellipodiae and at cell cell contact sites; also recorded: no influence
